PubChem BioAssay (NCI)
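96-well plates; 48 h exposure; 5 concentrations. Endpoints by linear interpolation between flanking doses. Not reached: highest tested concentration assigned. Here, GI50 denotes the concentration required for 50% inhibition of growth. Definition used: TGI = concentration required for complete inhibition of growth.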

Experiments:
Test in all cases: NCI-60 cell line screen, 48 h
CCRF-CEM leukemia = system: CCRF-CEM leukemia
HL-60(TB) leukemia = system: HL-60(TB) leukemia
HT29 colon = system: HT29 colon
K-562 leukemia = system: K-562 leukemia
MCF7 breast = system: MCF7 breast
MOLT-4 leukemia = system: MOLT-4 leukemia
OVCAR-4 ovarian = system: OVCAR-4 ovarian
RPMI-8226 leukemia = system: RPMI-8226 leukemia
SN12C renal = system: SN12C renal
SNB-19 CNS = system: SNB-19 CNS

SMILES	TGI (CCRF-CEM leukemia) [µM]	TGI (HL-60(TB) leukemia) [µM]	TGI (HT29 colon) [µM]	TGI (K-562 leukemia) [µM]	TGI (MCF7 breast) [µM]	TGI (MOLT-4 leukemia) [µM]	TGI (OVCAR-4 ovarian) [µM]	TGI (RPMI-8226 leukemia) [µM]	TGI (SN12C renal) [µM]	TGI (SNB-19 CNS) [µM]	GI50 (CCRF-CEM leukemia) [µM]	GI50 (HL-60(TB) leukemia) [µM]	GI50 (HT29 colon) [µM]	GI50 (K-562 leukemia) [µM]	GI50 (MCF7 breast) [µM]	GI50 (MOLT-4 leukemia) [µM]	GI50 (OVCAR-4 ovarian) [µM]	GI50 (RPMI-8226 leukemia) [µM]	GI50 (SN12C renal) [µM]	GI50 (SNB-19 CNS) [µM]
O=C1c2cccc3cc([N+](=O)[O-])cc(c23)C(=O)N1O	> 100	> 100	> 100	> 100	91.8	> 100	> 100	> 100	> 100	> 100	–	–	–	–	–	–	–	–	–	–
C=C1CO[C@@H]2C[C@@H]1CC/C(C)=C/CC/C(C)=C/CC[C@@]2(C)O	33.9	11.2	94.1	> 46.2	> 63.6	12.4	43.4	33.9	43.7	51.6	14.7	1.17	28.4	15.1	25.4	1.26	21.7	10.9	20	23.3
COc1ccc(C2C3=C(COC3=O)N(CCO)c3cc4c(cc32)OCCO4)cc1OC (centres undefined)	> 50	5.65	> 14.9	> 50	> 50	> 47.4	> 50	> 12.6	> 50	> 30.5	2.02	1.28	1.64	1.38	0.634	2.85	3.67	1.91	> 15.7	–
CCOc1cc(/C=N\NC(=O)N/N=C/c2ccc(O)c(OCC)c2)ccc1O	> 100	> 39.2	> 100	> 100	> 100	> 76.8	> 100	> 53	> 100	> 100	2.51	2.5	3.38	0.441	0.815	3.41	54.3	4.79	7	4
N#Cc1c(Oc2ccc(F)c(NC(=O)Cc3cccc(C(F)(F)F)c3)c2)ccc2nc(NC(=O)C3CC3)sc12	> 100	> 100	> 100	> 100	> 100	> 100	> 100	> 100	> 100	> 100	0.622	0.48	0.0533	0.385	1.11	0.673	2.6	0.72	1.26	0.828
CNCCOc1nc2c3cnccc3cc(-c3cc(OC)c(OC)c(OC)c3)c2c2ccncc12	1.1	0.0685	1.07	10.1	0.275	0.0478	0.749	0.113	0.0872	0.349	< 0.013	< 0.0153	0.0372	0.0294	< 0.01	< 0.01	0.161	0.0229	0.0199	0.0253
CC[C@H](C)[C@H](NC(=O)C12CC(NC(C)=O)(C1)C2)C(=O)N(C)[C@H](C[C@@H](OC(C)=O)c1nc(C(=O)N[C@@H](Cc2ccccc2)C[C@H](C)C(=O)OC)cs1)C(C)C	> 16.7	0.21	> 5.52	> 16.7	> 16.7	> 16.7	> 16.7	> 3.64	> 16.7	> 16.7	0.273	0.0522	0.0731	0.101	0.0489	0.748	0.885	0.0585	0.937	0.607
OC(c1ccccc1)c1c(-c2ccccc2)oc(-c2ccccc2)c1C(O)c1ccccc1 (centres undefined)	17.1	6.13	23.1	13.9	16.6	22	7.99	14	18.4	28.6	–	–	–	–	–	–	–	–	–	–
CN1CCN(c2ccc3nc4c(nc3c2C(F)(F)F)C(=O)c2ncccc2C4=O)CC1	7.32	5.92	6.18	7.75	2.09	5.52	2.26	7.59	2.91	5.7	2.44	1.6	2.32	1.43	0.316	2.28	1.07	2.37	1.44	1.66
Cc1cc2c(C(C)C)c(O)c(O)c(C=O)c2c(O)c1-c1c(C)cc2c(C(C)C)c(O)c(O)c(C=O)c2c1O (tested in a mixture with another compound)	13.7	5.74	3.51	20.7	6.9	13.6	9.99	4.74	5.95	9.47	0.546	0.535	1.61	0.425	1.18	0.748	1.45	0.529	1.66	0.686
CN(NC(=O)CC(=O)NN(C)C(=S)c1ccc(Cl)cc1)C(=S)c1ccc(Cl)cc1	> 100	71.7	> 100	> 100	> 100	> 100	> 100	> 100	> 100	> 100	7.94	25.1	23.6	16.4	18	17.6	19.6	12.6	18.6	23.1
Cc1cccnc1CNC1CC(NCc2ncccc2C)CC(NCc2ncccc2C)C1 (centres undefined)	4.71	5.98	> 39.3	5.56	5.21	5.38	11.9	4.3	3.11	4.03	2.18	2.47	3.36	2.38	2.39	2.72	2.88	1.91	1.61	2.04
CCS/C(Nc1ccccc1)=C(\C#N)C(=O)N/N=C/c1ccc(Cl)cc1Cl	> 100	> 100	> 100	> 100	> 100	> 100	> 100	> 100	> 100	> 100	3.07	3.2	3.7	0.855	2.99	3.48	6.57	3.68	6.92	4.17
C=C=[CH][Sn]([c]1ccccc1)([c]1ccccc1)[c]1ccccc1	3.4	4.57	2.45	3.3	2.81	6.49	3.38	4.36	3.19	3.34	0.79	1.78	1.21	0.722	1.41	1.14	1.47	1.4	1.68	1.81
COc1ccc(-c2cncn2-c2cc(OC)c(OC)c(OC)c2)cc1F	> 100	< 0.0288	> 38.6	> 100	> 100	> 100	> 100	12.2	> 100	> 100	< 0.0296	0.0103	< 0.01	< 0.01	< 0.01	< 0.0283	1.19	< 0.01	0.789	< 0.0146
N#CC[C@H](C1CCCC1)n1cc(-c2ncnc3[nH]ccc23)cn1	> 100	60.6	41.5	> 100	> 86.8	> 78.8	> 79.1	> 100	> 100	> 100	29.1	22.7	19.7	22.2	17.6	20.7	20.4	36	22.1	35.2
CS(=O)(=O)c1nc(Cl)c(Cl)c(C#N)c1Cl	> 100	> 100	4.35	20.6	13.2	6.02	3.34	14.6	5.9	36	–	–	–	–	–	–	–	–	–	–
C[C@@H]1CN2[C@H]3[C@@H]1CC[C@]31CCC(=O)O[C@]1(C)[C@@H]1CC[C@H]3CCC=C3[C@@H]12	> 70	> 70	> 70	> 70	> 70	> 70	> 70	> 70	> 70	> 70	> 70	> 70	> 70	> 70	> 70	> 70	> 70	> 70	> 70	> 70
Nc1cccc2nsnc12	> 82.4	26.7	> 100	> 85.4	> 100	> 54.5	> 100	> 86.9	> 100	> 100	–	–	–	–	–	–	–	–	–	–
